Experimental data from patent US9029553B2, “2-anilino nicotinyl linked 2-amino benzothiazole conjugates and process for the preparation thereof” (Council of Scientific & Industrial Research, priority 2011, dated 2015).

System: MDA-MB-231/ATCC
Experiment: NCI SRB GI50 screen
Type: cell-based
Conditions: Homo sapiens, Breast, 48 hrs exposure, read-out: Growth Inhibition GI50 MDA-MB-231/ATCC
Protocol: (§1) 2-Anilino nicotinyl linked 2-amino benzothiazole conjugates of formula 9-12 were tested against fifty nine human cancer cell lines derived from nine cancer types (leukemia, non-small cell lung cancer, colon cancer, CNS cancer, melanoma, ovarian cancer, renal cancer, prostate cancer and breast cancer) as per NCI protocol. For each compound, dose response curves for individual cell lines were measured at a minimum of five concentrations at 10 fold dilutions. A protocol of 48 hrs continuous drug exposure was used, and a sulforhodamine B (SRB) protein assay was used to estimate cell viability or growth.

Row | SMILES | GI50
1 | COc1ccc2nc(NC(=O)c3cccnc3Nc3cc(OC)c(OC)c(OC)c3)sc2c1 [Compound 12, N-3-(6-methoxy-1,3-benzothiazol-2-yl)-2-(3,4,5-trimethoxyanilino) nicotinamide] | 5.62 µM

System: EKVX
Experiment: NCI SRB GI50 screen
Type: cell-based
Conditions: Homo sapiens, Non-small lung, 48 hrs exposure, read-out: Growth Inhibition GI50 EKVX
Protocol: as §1

Row | SMILES | GI50
2 | COc1ccc2nc(NC(=O)c3cccnc3Nc3cc(OC)c(OC)c(OC)c3)sc2c1 [Compound 12, N-3-(6-methoxy-1,3-benzothiazol-2-yl)-2-(3,4,5-trimethoxyanilino) nicotinamide] | 11.5 µM

System: K-562
Experiment: NCI SRB GI50 screen
Type: cell-based
Conditions: Homo sapiens, K562; Leukemia, 48 hrs exposure; read-out: Growth Inhibition GI50 K-562
Protocol: as §1

Row | SMILES | GI50
3 | COc1ccc2nc(NC(=O)c3cccnc3Nc3cc(OC)c(OC)c(OC)c3)sc2c1 [Compound 12, N-3-(6-methoxy-1,3-benzothiazol-2-yl)-2-(3,4,5-trimethoxyanilino) nicotinamide] | 8.91 µM

System: NCI-H226
Experiment: NCI SRB GI50 screen
Type: cell-based
Conditions: Homo sapiens, Non-small lung, 48 hrs exposure, read-out: Growth Inhibition GI50 NCI-H226
Protocol: as §1

Row | SMILES | GI50
4 | COc1ccc2nc(NC(=O)c3cccnc3Nc3cc(OC)c(OC)c(OC)c3)sc2c1 [Compound 12, N-3-(6-methoxy-1,3-benzothiazol-2-yl)-2-(3,4,5-trimethoxyanilino) nicotinamide] | 10.7 µM

System: MDA-MB-435
Experiment: NCI SRB GI50 screen
Type: cell-based
Conditions: Homo sapiens, Melanoma, 48 hrs exposure, read-out: Growth Inhibition GI50 MDA-MB-435
Protocol: as §1

Row | SMILES | GI50
5 | COc1ccc2nc(NC(=O)c3cccnc3Nc3cc(OC)c(OC)c(OC)c3)sc2c1 [Compound 12, N-3-(6-methoxy-1,3-benzothiazol-2-yl)-2-(3,4,5-trimethoxyanilino) nicotinamide] | 1.85 µM

System: A549/ATCC
Experiment: NCI SRB GI50 screen
Type: cell-based
Conditions: Homo sapiens, Non-small lung, 48 hrs exposure, read-out: Growth Inhibition GI50 A549/ATCC
Protocol: as §1

Row | SMILES | GI50
6 | COc1ccc2nc(NC(=O)c3cccnc3Nc3cc(OC)c(OC)c(OC)c3)sc2c1 [Compound 12, N-3-(6-methoxy-1,3-benzothiazol-2-yl)-2-(3,4,5-trimethoxyanilino) nicotinamide] | 7.38 µM

System: HCC-2998
Experiment: NCI SRB GI50 screen
Type: cell-based
Conditions: Homo sapiens, Colon, 48 hrs exposure, read-out: Growth Inhibition GI50 HCC-2998
Protocol: as §1

Row | SMILES | GI50
7 | COc1ccc2nc(NC(=O)c3cccnc3Nc3cc(OC)c(OC)c(OC)c3)sc2c1 [Compound 12, N-3-(6-methoxy-1,3-benzothiazol-2-yl)-2-(3,4,5-trimethoxyanilino) nicotinamide] | 17 µM

System: PC-3
Experiment: NCI SRB GI50 screen
Type: cell-based
Conditions: Homo sapiens, Prostate, 48 hrs exposure, read-out: Growth Inhibition GI50 PC-3
Protocol: as §1

Row | SMILES | GI50
8 | COc1ccc2nc(NC(=O)c3cccnc3Nc3cc(OC)c(OC)c(OC)c3)sc2c1 [Compound 12, N-3-(6-methoxy-1,3-benzothiazol-2-yl)-2-(3,4,5-trimethoxyanilino) nicotinamide] | 6.67 µM

System: UO-31
Experiment: NCI SRB GI50 screen
Type: cell-based
Conditions: Homo sapiens, Renal, 48 hrs exposure, read-out: Growth Inhibition GI50 UO-31
Protocol: as §1

Row | SMILES | GI50
9 | COc1ccc2nc(NC(=O)c3cccnc3Nc3cc(OC)c(OC)c(OC)c3)sc2c1 [Compound 12, N-3-(6-methoxy-1,3-benzothiazol-2-yl)-2-(3,4,5-trimethoxyanilino) nicotinamide] | 9.3 µM

System: SNB-75
Experiment: NCI SRB GI50 screen
Type: cell-based
Conditions: Homo sapiens, CNS, 48 hrs exposure, read-out: Growth Inhibition GI50 SNB-75
Protocol: as §1

Row | SMILES | GI50
10 | COc1ccc2nc(NC(=O)c3cccnc3Nc3cc(OC)c(OC)c(OC)c3)sc2c1 [Compound 12, N-3-(6-methoxy-1,3-benzothiazol-2-yl)-2-(3,4,5-trimethoxyanilino) nicotinamide] | 2.89 µM

System: OVCAR-8
Experiment: NCI SRB GI50 screen
Type: cell-based
Conditions: Homo sapiens, Ovarian, 48 hrs exposure, read-out: Growth Inhibition GI50 OVCAR-8
Protocol: as §1

Row | SMILES | GI50
11 | COc1ccc2nc(NC(=O)c3cccnc3Nc3cc(OC)c(OC)c(OC)c3)sc2c1 [Compound 12, N-3-(6-methoxy-1,3-benzothiazol-2-yl)-2-(3,4,5-trimethoxyanilino) nicotinamide] | 6.52 µM

System: TK-10
Experiment: NCI SRB GI50 screen
Type: cell-based
Conditions: Homo sapiens, Renal, 48 hrs exposure, read-out: Growth Inhibition GI50 TK-10
Protocol: as §1

Row | SMILES | GI50
12 | COc1ccc2nc(NC(=O)c3cccnc3Nc3cc(OC)c(OC)c(OC)c3)sc2c1 [Compound 12, N-3-(6-methoxy-1,3-benzothiazol-2-yl)-2-(3,4,5-trimethoxyanilino) nicotinamide] | 4.31 µM

System: SF-268
Experiment: NCI SRB GI50 screen
Type: cell-based
Conditions: Homo sapiens, CNS, 48 hrs exposure, read-out: Growth Inhibition GI50 SF-268
Protocol: as §1

Row | SMILES | GI50
13 | COc1ccc2nc(NC(=O)c3cccnc3Nc3cc(OC)c(OC)c(OC)c3)sc2c1 [Compound 12, N-3-(6-methoxy-1,3-benzothiazol-2-yl)-2-(3,4,5-trimethoxyanilino) nicotinamide] | 4.43 µM

System: OVCAR-4
Experiment: NCI SRB GI50 screen
Type: cell-based
Conditions: Homo sapiens, Ovarian, 48 hrs exposure, read-out: Growth Inhibition GI50 OVCAR-4
Protocol: as §1

Row | SMILES | GI50
14 | COc1ccc2nc(NC(=O)c3cccnc3Nc3cc(OC)c(OC)c(OC)c3)sc2c1 [Compound 12, N-3-(6-methoxy-1,3-benzothiazol-2-yl)-2-(3,4,5-trimethoxyanilino) nicotinamide] | 15 µM

System: NCI-H522
Experiment: NCI SRB GI50 screen
Type: cell-based
Conditions: Homo sapiens, Non-small lung, 48 hrs exposure, read-out: Growth Inhibition GI50 NCI-H522
Protocol: as §1

Row | SMILES | GI50
15 | COc1ccc2nc(NC(=O)c3cccnc3Nc3cc(OC)c(OC)c(OC)c3)sc2c1 [Compound 12, N-3-(6-methoxy-1,3-benzothiazol-2-yl)-2-(3,4,5-trimethoxyanilino) nicotinamide] | 2.6 µM

System: UACC-62
Experiment: NCI SRB GI50 screen
Type: cell-based
Conditions: Homo sapiens, Melanoma, 48 hrs exposure, read-out: Growth Inhibition GI50 UACC-62
Protocol: as §1

Row | SMILES | GI50
16 | COc1ccc2nc(NC(=O)c3cccnc3Nc3cc(OC)c(OC)c(OC)c3)sc2c1 [Compound 12, N-3-(6-methoxy-1,3-benzothiazol-2-yl)-2-(3,4,5-trimethoxyanilino) nicotinamide] | 8.45 µM

System: NCI-H460
Experiment: NCI SRB GI50 screen
Type: cell-based
Conditions: Homo sapiens, Non-small lung, 48 hrs exposure, read-out: Growth Inhibition GI50 NCI-H460
Protocol: as §1

Row | SMILES | GI50
17 | COc1ccc2nc(NC(=O)c3cccnc3Nc3cc(OC)c(OC)c(OC)c3)sc2c1 [Compound 12, N-3-(6-methoxy-1,3-benzothiazol-2-yl)-2-(3,4,5-trimethoxyanilino) nicotinamide] | 7.42 µM

System: COLO 205
Experiment: NCI SRB GI50 screen
Type: cell-based
Conditions: Homo sapiens, Colon, 48 hrs exposure, read-out: Growth Inhibition GI50 COLO 205
Protocol: as §1

Row | SMILES | GI50
18 | COc1ccc2nc(NC(=O)c3cccnc3Nc3cc(OC)c(OC)c(OC)c3)sc2c1 [Compound 12, N-3-(6-methoxy-1,3-benzothiazol-2-yl)-2-(3,4,5-trimethoxyanilino) nicotinamide] | 17.4 µM

System: SF-295
Experiment: NCI SRB GI50 screen
Type: cell-based
Conditions: Homo sapiens, CNS, 48 hrs exposure, read-out: Growth Inhibition GI50 SF-295
Protocol: as §1

Row | SMILES | GI50
19 | COc1ccc2nc(NC(=O)c3cccnc3Nc3cc(OC)c(OC)c(OC)c3)sc2c1 [Compound 12, N-3-(6-methoxy-1,3-benzothiazol-2-yl)-2-(3,4,5-trimethoxyanilino) nicotinamide] | 8.34 µM

System: SK-OV-3
Experiment: NCI SRB GI50 screen
Type: cell-based
Conditions: Homo sapiens, Ovarian, 48 hrs exposure, read-out: Growth Inhibition GI50 SK-OV-3
Protocol: as §1

Row | SMILES | GI50
20 | COc1ccc2nc(NC(=O)c3cccnc3Nc3cc(OC)c(OC)c(OC)c3)sc2c1 [Compound 12, N-3-(6-methoxy-1,3-benzothiazol-2-yl)-2-(3,4,5-trimethoxyanilino) nicotinamide] | 3.72 µM

System: M14
Experiment: NCI SRB GI50 screen
Type: cell-based
Conditions: Homo sapiens, Melanoma, 48 hrs exposure, read-out: Growth Inhibition GI50 M14
Protocol: as §1

Row | SMILES | GI50
21 | COc1ccc2nc(NC(=O)c3cccnc3Nc3cc(OC)c(OC)c(OC)c3)sc2c1 [Compound 12, N-3-(6-methoxy-1,3-benzothiazol-2-yl)-2-(3,4,5-trimethoxyanilino) nicotinamide] | 10.5 µM

System: MDA-MB-468
Experiment: NCI SRB GI50 screen
Type: cell-based
Conditions: Homo sapiens, Breast, 48 hrs exposure, read-out: Growth Inhibition GI50 MDA-MB-468
Protocol: as §1

Row | SMILES | GI50
22 | COc1ccc2nc(NC(=O)c3cccnc3Nc3cc(OC)c(OC)c(OC)c3)sc2c1 [Compound 12, N-3-(6-methoxy-1,3-benzothiazol-2-yl)-2-(3,4,5-trimethoxyanilino) nicotinamide] | 17.8 µM

System: HOP-62
Experiment: NCI SRB GI50 screen
Type: cell-based
Conditions: Homo sapiens, Non-small lung, 48 hrs exposure, read-out: Growth Inhibition GI50 HOP-62
Protocol: as §1

Row | SMILES | GI50
23 | COc1ccc2nc(NC(=O)c3cccnc3Nc3cc(OC)c(OC)c(OC)c3)sc2c1 [Compound 12, N-3-(6-methoxy-1,3-benzothiazol-2-yl)-2-(3,4,5-trimethoxyanilino) nicotinamide] | 6.33 µM

System: MOLT-4
Experiment: NCI SRB GI50 screen
Type: cell-based
Conditions: Homo sapiens, Leukemia, 48 hrs exposure, read-out: Growth Inhibition GI50 MOLT-4
Protocol: as §1

Row | SMILES | GI50
24 | COc1ccc2nc(NC(=O)c3cccnc3Nc3cc(OC)c(OC)c(OC)c3)sc2c1 [Compound 12, N-3-(6-methoxy-1,3-benzothiazol-2-yl)-2-(3,4,5-trimethoxyanilino) nicotinamide] | 24.2 µM

System: HOP-92
Experiment: NCI SRB GI50 screen
Type: cell-based
Conditions: Homo sapiens, Non-small lung, 48 hrs exposure, read-out: Growth Inhibition GI50 HOP-92
Protocol: as §1

Row | SMILES | GI50
25 | COc1ccc2nc(NC(=O)c3cccnc3Nc3cc(OC)c(OC)c(OC)c3)sc2c1 [Compound 12, N-3-(6-methoxy-1,3-benzothiazol-2-yl)-2-(3,4,5-trimethoxyanilino) nicotinamide] | 2.24 µM

System: MALME-3M
Experiment: NCI SRB GI50 screen
Type: cell-based
Conditions: Homo sapiens, read-out: Growth Inhibition GI50 MALME-3M, Melanoma, 48 hrs exposure
Protocol: as §1

Row | SMILES | GI50
26 | COc1ccc2nc(NC(=O)c3cccnc3Nc3cc(OC)c(OC)c(OC)c3)sc2c1 [Compound 12, N-3-(6-methoxy-1,3-benzothiazol-2-yl)-2-(3,4,5-trimethoxyanilino) nicotinamide] | 10.1 µM

System: UACC-257
Experiment: NCI SRB GI50 screen
Type: cell-based
Conditions: Homo sapiens, Melanoma, 48 hrs exposure, read-out: Growth Inhibition GI50 UACC-257
Protocol: as §1

Row | SMILES | GI50
27 | COc1ccc2nc(NC(=O)c3cccnc3Nc3cc(OC)c(OC)c(OC)c3)sc2c1 [Compound 12, N-3-(6-methoxy-1,3-benzothiazol-2-yl)-2-(3,4,5-trimethoxyanilino) nicotinamide] | 8.45 µM

System: T-47D
Experiment: NCI SRB GI50 screen
Type: cell-based
Conditions: Homo sapiens, T47D; Breast, 48 hrs exposure; read-out: Growth Inhibition GI50 T-47D
Protocol: as §1

Row | SMILES | GI50
28 | COc1ccc2nc(NC(=O)c3cccnc3Nc3cc(OC)c(OC)c(OC)c3)sc2c1 [Compound 12, N-3-(6-methoxy-1,3-benzothiazol-2-yl)-2-(3,4,5-trimethoxyanilino) nicotinamide] | 5.06 µM

System: U251
Experiment: NCI SRB GI50 screen
Type: cell-based
Conditions: Homo sapiens, U-251; CNS, 48 hrs exposure; read-out: Growth Inhibition GI50 U251
Protocol: as §1

Row | SMILES | GI50
29 | COc1ccc2nc(NC(=O)c3cccnc3Nc3cc(OC)c(OC)c(OC)c3)sc2c1 [Compound 12, N-3-(6-methoxy-1,3-benzothiazol-2-yl)-2-(3,4,5-trimethoxyanilino) nicotinamide] | 7.1 µM

System: NCI/ADR-RES
Experiment: NCI SRB GI50 screen
Type: cell-based
Conditions: Homo sapiens, Ovarian, 48 hrs exposure, read-out: Growth Inhibition GI50 NCI/ADR-RES
Protocol: as §1

Row | SMILES | GI50
30 | COc1ccc2nc(NC(=O)c3cccnc3Nc3cc(OC)c(OC)c(OC)c3)sc2c1 [Compound 12, N-3-(6-methoxy-1,3-benzothiazol-2-yl)-2-(3,4,5-trimethoxyanilino) nicotinamide] | 8.97 µM

System: MCF7
Experiment: NCI SRB GI50 screen
Type: cell-based
Conditions: Homo sapiens, Breast, 48 hrs exposure, read-out: Growth Inhibition GI50 MCF7
Protocol: as §1

Row | SMILES | GI50
31 | COc1ccc2nc(NC(=O)c3cccnc3Nc3cc(OC)c(OC)c(OC)c3)sc2c1 [Compound 12, N-3-(6-methoxy-1,3-benzothiazol-2-yl)-2-(3,4,5-trimethoxyanilino) nicotinamide] | 0.51 µM
